Source: the NIST ThermoML archive (doi:10.1016/j.jct.2007.06.016)
Numbers after ± are expanded uncertainties.

Experiments:
[1] = 298.15 K, 101.33 kPa, Liquid
[2] = refractive index (Na D-line) (dimensionless); settings: 298.15 K; 101.33 kPa; Liquid; Standard Abbe refractometry

| Compound | mass density [1] [kg/m3] | refractive index [2] | mass density ([1]; Vibrating tube method) [kg/m3] |
| --- | --- | --- | --- |
| C1CCCCC1 [cyclohexane] | 773.76 ± 0.52 | 1.42403 ± 0.00068 |  |
| CCCCCCCCCCCC [dodecane] | 745.32 ± 0.91 | 1.42011 ± 0.0007 |  |
| CCCCCCCCn1cc[n+](C)c1.O=S(=O)([N-]S(=O)(=O)C(F)(F)F)C(F)(F)F |  | 1.43331 ± 0.0012 | 1320.76 ± 9.5 |
| c1ccsc1 [thiophene] | 1058.5 ± 0.55 | 1.52581 ± 0.0007 |  |
